Experimental data published in patent publication US9593122B2, “Substituted pyrazolylpyrazole derivative and use of same as herbicide” (KYOYU AGRI CO., LTD., priority 2013, dated 2017).

Key:
Rice plants = experiment: Paddy herbicidal activity test, phytotoxicity to transplanted rice; format: in vivo; settings: rice transplanted at 2.0 leaf stage, 30 days
Method: Rice paddy soil was filled into a 1/10000 are pot followed by the addition of suitable amounts of water and chemical fertilizer, kneading, seeding with Echinochloa crus-galli, Monochoria vaginalis and Scirpus juncoides and maintaining in an irrigated state at a water depth of 3 cm.
Wettable powder of Target Compound (I) shown in Table 1 prepared in compliance with the preparation examples were diluted with a suitable amount of water, rice plants in the 2.0 leaf stage were transplanted during 3.5 leaf stage of Echinochloa crus-galli, and treated by dropping in chemical in the prescribed amount per are using a pipette.
After treating for 30 days in a glass greenhouse at an average atmospheric temperature of 30° C., the herbicidal efficacy thereof was investigated.
Evaluation of herbicidal efficacy was carried out by comparing growth inhibition rate (%) with an untreated group, while evaluation of phytotoxicity was carried out by comparing growth inhibition rate (%) with the state of a complete eradication group, and were evaluated at 11 levels indicated below.

Monochoria vaginalis = experiment: Paddy herbicidal activity test; format: in vivo; settings: irrigated paddy pot, 30 days
How it was run: (§1)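 Flooded paddy-soil pots (3 cm water) were sown with Echinochloa, Monochoria and Scirpus, and rice at the 2.0-leaf stage was transplanted. Diluted wettable powder was dripped in per are at weed 3.5-leaf stage. After 30 days in a greenhouse (~30 °C), growth inhibition versus untreated plants was scored on an 11-level scale.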

Scirpus juncoides = experiment: Paddy herbicidal activity test; format: in vivo; settings: irrigated paddy pot, 30 days
How it was run: as §1

Echinochloa crus-galli = experiment: Paddy herbicidal activity test; format: in vivo; settings: irrigated paddy pot, treated at 3.5 leaf stage of Echinochloa crus-galli, 30 days
How it was run: as §1

SMILES | Rice plants phytotoxicity (growth inhibition level) (Rice plants; 1g a.i./10a) | Rice plants phytotoxicity (growth inhibition level) (Rice plants; 5g a.i./10a) | Monochoria vaginalis herbicidal efficacy (growth inhibition level) (Monochoria vaginalis; 1g a.i./10a) | Monochoria vaginalis herbicidal efficacy (growth inhibition level) (Monochoria vaginalis; 5g a.i./10a) | Scirpus juncoides herbicidal efficacy (growth inhibition level) (Scirpus juncoides; 1g a.i./10a) | Scirpus juncoides herbicidal efficacy (growth inhibition level) (Scirpus juncoides; 5g a.i./10a) | Echinochloa crus-galli herbicidal efficacy (growth inhibition level) (Echinochloa crus-galli; 1g a.i./10a) | Echinochloa crus-galli herbicidal efficacy (growth inhibition level) (Echinochloa crus-galli; 5g a.i./10a) | melting point [°C]
C=C(Cl)CNc1c(C#N)cnn1-c1nn2c(c1Cl)CCCC2 [Compound 2, 1-(3-chloro-4,5,6,7-tetrahydropyrazolo[1,5-a]pyridin-2-yl)-5-(2-chloroprop-2-enylamino)pyrazole-4-carbonitrile] | 0 (0 (exponent): 0% to less than 10% (growth inhibition rate)) | 0 (0 (exponent): 0% to less than 10% (growth inhibition rate)) | 9 (9: 90% to less than 100%) | 9 (9: 90% to less than 100%) | 7 (7: 70% to less than 80%) | 8 (8: 80% to less than 90%) | 9 (9: 90% to less than 100%) | 9 (9: 90% to less than 100%) | 123 to 124
C=C(C)CNc1c(C#N)cnn1-c1nn2c(c1Cl)CCCC2 [Compound 1, 1-(3-chloro-4,5,6,7-tetrahydropyrazolo[1,5-a]pyridin-2-yl)-5-(2-methylprop-2-enylamino)pyrazole-4-carbonitrile] | 0 (0 (exponent): 0% to less than 10% (growth inhibition rate)) | 0 (0 (exponent): 0% to less than 10% (growth inhibition rate)) | 9 (9: 90% to less than 100%) | 9 (9: 90% to less than 100%) | 7 (7: 70% to less than 80%) | 8 (8: 80% to less than 90%) | 8 (8: 80% to less than 90%) | 9 (9: 90% to less than 100%) | 97 to 98
